Results published in the NIST ThermoML archive (doi:10.1021/je200811n).
± gives the expanded uncertainty stated by the source.

Details: Hot wire method

## C=C(F)C(F)(F)F [2,3,3,3-tetrafluoro-1-propene]
241.92 K, 6085 kPa, Liquid
  thermal conductivity: 0.08525 ± 0.00094 W/m/K
241.92 K, 10976 kPa, Liquid
  thermal conductivity: 0.08707 ± 0.00096 W/m/K
241.93 K, 15764 kPa, Liquid
  thermal conductivity: 0.08965 ± 0.00099 W/m/K
241.94 K, 69 kPa, Gas
  thermal conductivity: 0.00942 ± 0.00033 W/m/K
241.95 K, 77 kPa, Gas
  thermal conductivity: 0.00944 ± 0.00033 W/m/K
241.95 K, 20987 kPa, Liquid
  thermal conductivity: 0.09158 ± 0.001 W/m/K
241.97 K, 86 kPa, Gas
  thermal conductivity: 0.00944 ± 0.00033 W/m/K
242 K, 880 kPa, Liquid
  thermal conductivity: 0.08218 ± 0.00091 W/m/K
242.01 K, 6088 kPa, Liquid
  thermal conductivity: 0.08496 ± 0.00093 W/m/K
242.01 K, 10981 kPa, Liquid
  thermal conductivity: 0.08718 ± 0.00096 W/m/K
242.02 K, 15753 kPa, Liquid
  thermal conductivity: 0.08918 ± 0.00098 W/m/K
242.19 K, 69 kPa, Gas
  thermal conductivity: 0.00931 ± 0.00033 W/m/K
242.2 K, 78 kPa, Gas
  thermal conductivity: 0.00934 ± 0.00033 W/m/K
242.22 K, 87 kPa, Gas
  thermal conductivity: 0.00935 ± 0.00033 W/m/K
242.34 K, 883 kPa, Liquid
  thermal conductivity: 0.08243 ± 0.00091 W/m/K
242.34 K, 10985 kPa, Liquid
  thermal conductivity: 0.08732 ± 0.00096 W/m/K
242.34 K, 15757 kPa, Liquid
  thermal conductivity: 0.08916 ± 0.00098 W/m/K
242.35 K, 6087 kPa, Liquid
  thermal conductivity: 0.08514 ± 0.00093 W/m/K
242.35 K, 20980 kPa, Liquid
  thermal conductivity: 0.09106 ± 0.001 W/m/K
242.35 K, 21022 kPa, Liquid
  thermal conductivity: 0.09102 ± 0.00099 W/m/K
242.46 K, 15754 kPa, Liquid
  thermal conductivity: 0.08876 ± 0.00097 W/m/K
242.47 K, 69 kPa, Gas
  thermal conductivity: 0.00926 ± 0.00033 W/m/K
242.47 K, 78 kPa, Gas
  thermal conductivity: 0.00926 ± 0.00033 W/m/K
242.47 K, 886 kPa, Liquid
  thermal conductivity: 0.08219 ± 0.0009 W/m/K
242.47 K, 6087 kPa, Liquid
  thermal conductivity: 0.08483 ± 0.00093 W/m/K
242.47 K, 10989 kPa, Liquid
  thermal conductivity: 0.08709 ± 0.00095 W/m/K
242.5 K, 87 kPa, Gas
  thermal conductivity: 0.00928 ± 0.00033 W/m/K
242.52 K, 87 kPa, Gas
  thermal conductivity: 0.00925 ± 0.00032 W/m/K
242.54 K, 68 kPa, Gas
  thermal conductivity: 0.00927 ± 0.00033 W/m/K
242.54 K, 76 kPa, Gas
  thermal conductivity: 0.00929 ± 0.00033 W/m/K
242.8 K, 20976 kPa, Liquid
  thermal conductivity: 0.09105 ± 0.00099 W/m/K
242.81 K, 10986 kPa, Liquid
  thermal conductivity: 0.08711 ± 0.00095 W/m/K
242.81 K, 15750 kPa, Liquid
  thermal conductivity: 0.08896 ± 0.00097 W/m/K
242.81 K, 21021 kPa, Liquid
  thermal conductivity: 0.09106 ± 0.001 W/m/K
242.83 K, 6086 kPa, Liquid
  thermal conductivity: 0.08481 ± 0.00093 W/m/K
242.85 K, 891 kPa, Liquid
  thermal conductivity: 0.08226 ± 0.0009 W/m/K
242.88 K, 87 kPa, Gas
  thermal conductivity: 0.00926 ± 0.00033 W/m/K
242.9 K, 77 kPa, Gas
  thermal conductivity: 0.00929 ± 0.00033 W/m/K
242.91 K, 68 kPa, Gas
  thermal conductivity: 0.0093 ± 0.00033 W/m/K
242.94 K, 15756 kPa, Liquid
  thermal conductivity: 0.08889 ± 0.00097 W/m/K
242.96 K, 10985 kPa, Liquid
  thermal conductivity: 0.08695 ± 0.00095 W/m/K
242.98 K, 6086 kPa, Liquid
  thermal conductivity: 0.08445 ± 0.00093 W/m/K
243 K, 892 kPa, Liquid
  thermal conductivity: 0.082 ± 0.0009 W/m/K
243.15 K, Liquid
  thermal conductivity: 0.08189 ± 0.00053 W/m/K
243.28 K, 86 kPa, Gas
  thermal conductivity: 0.00928 ± 0.00033 W/m/K
243.29 K, 21014 kPa, Liquid
  thermal conductivity: 0.09132 ± 0.001 W/m/K
243.3 K, 77 kPa, Gas
  thermal conductivity: 0.0093 ± 0.00033 W/m/K
243.3 K, 20966 kPa, Liquid
  thermal conductivity: 0.09102 ± 0.001 W/m/K
243.31 K, 69 kPa, Gas
  thermal conductivity: 0.00933 ± 0.00033 W/m/K
243.32 K, 10987 kPa, Liquid
  thermal conductivity: 0.08693 ± 0.00095 W/m/K
243.32 K, 15749 kPa, Liquid
  thermal conductivity: 0.0891 ± 0.00097 W/m/K
243.35 K, 6084 kPa, Liquid
  thermal conductivity: 0.08459 ± 0.00093 W/m/K
243.38 K, 894 kPa, Liquid
  thermal conductivity: 0.08224 ± 0.0009 W/m/K
243.47 K, 15756 kPa, Liquid
  thermal conductivity: 0.08884 ± 0.00097 W/m/K
243.5 K, 10983 kPa, Liquid
  thermal conductivity: 0.08672 ± 0.00095 W/m/K
243.53 K, 6087 kPa, Liquid
  thermal conductivity: 0.0843 ± 0.00092 W/m/K
243.57 K, 898 kPa, Liquid
  thermal conductivity: 0.08198 ± 0.0009 W/m/K
243.7 K, 86 kPa, Gas
  thermal conductivity: 0.00931 ± 0.00033 W/m/K
243.73 K, 78 kPa, Gas
  thermal conductivity: 0.00931 ± 0.00033 W/m/K
243.75 K, 69 kPa, Gas
  thermal conductivity: 0.00935 ± 0.00033 W/m/K
243.84 K, 20954 kPa, Liquid
  thermal conductivity: 0.09109 ± 0.00099 W/m/K
243.85 K, 21009 kPa, Liquid
  thermal conductivity: 0.09114 ± 0.001 W/m/K
243.87 K, 15753 kPa, Liquid
  thermal conductivity: 0.08885 ± 0.00097 W/m/K
243.9 K, 10980 kPa, Liquid
  thermal conductivity: 0.0868 ± 0.00095 W/m/K
243.94 K, 6082 kPa, Liquid
  thermal conductivity: 0.08438 ± 0.00093 W/m/K
243.98 K, 898 kPa, Liquid
  thermal conductivity: 0.08174 ± 0.0009 W/m/K
244.07 K, 15757 kPa, Liquid
  thermal conductivity: 0.08866 ± 0.00097 W/m/K
244.11 K, 10979 kPa, Liquid
  thermal conductivity: 0.08646 ± 0.00096 W/m/K
244.16 K, 86 kPa, Gas
  thermal conductivity: 0.00935 ± 0.00033 W/m/K
244.16 K, 6088 kPa, Liquid
  thermal conductivity: 0.08418 ± 0.00092 W/m/K
244.2 K, 78 kPa, Gas
  thermal conductivity: 0.00935 ± 0.00033 W/m/K
244.21 K, 900 kPa, Liquid
  thermal conductivity: 0.08153 ± 0.0009 W/m/K
244.22 K, 69 kPa, Gas
  thermal conductivity: 0.00937 ± 0.00033 W/m/K
251.4 K, 100 kPa, Gas
  thermal conductivity: 0.0102 ± 0.00035 W/m/K
251.41 K, 121 kPa, Gas
  thermal conductivity: 0.01025 ± 0.00036 W/m/K
251.42 K, 129 kPa, Gas
  thermal conductivity: 0.01024 ± 0.00036 W/m/K
251.64 K, 100 kPa, Gas
  thermal conductivity: 0.01009 ± 0.00035 W/m/K
251.65 K, 121 kPa, Gas
  thermal conductivity: 0.01014 ± 0.00035 W/m/K
251.66 K, 129 kPa, Gas
  thermal conductivity: 0.01016 ± 0.00035 W/m/K
251.9 K, 121 kPa, Gas
  thermal conductivity: 0.00997 ± 0.00035 W/m/K
251.91 K, 100 kPa, Gas
  thermal conductivity: 0.01002 ± 0.00035 W/m/K
251.91 K, 121 kPa, Gas
  thermal conductivity: 0.01007 ± 0.00035 W/m/K
251.91 K, 130 kPa, Gas
  thermal conductivity: 0.01 ± 0.00035 W/m/K
251.92 K, 129 kPa, Gas
  thermal conductivity: 0.01009 ± 0.00035 W/m/K
251.93 K, 100 kPa, Gas
  thermal conductivity: 0.00998 ± 0.00035 W/m/K
252.23 K, 121 kPa, Gas
  thermal conductivity: 0.00999 ± 0.00035 W/m/K
252.23 K, 130 kPa, Gas
  thermal conductivity: 0.00999 ± 0.00035 W/m/K
252.28 K, 100 kPa, Gas
  thermal conductivity: 0.01003 ± 0.00035 W/m/K
252.6 K, 122 kPa, Gas
  thermal conductivity: 0.01002 ± 0.00035 W/m/K
252.6 K, 130 kPa, Gas
  thermal conductivity: 0.01 ± 0.00035 W/m/K
252.67 K, 100 kPa, Gas
  thermal conductivity: 0.01006 ± 0.00035 W/m/K
253 K, 129 kPa, Gas
  thermal conductivity: 0.01005 ± 0.00035 W/m/K
253.01 K, 121 kPa, Gas
  thermal conductivity: 0.01006 ± 0.00035 W/m/K
253.09 K, 100 kPa, Gas
  thermal conductivity: 0.01007 ± 0.00035 W/m/K
253.15 K, Liquid
  thermal conductivity: 0.07836 ± 0.00052 W/m/K
253.43 K, 129 kPa, Gas
  thermal conductivity: 0.01006 ± 0.00035 W/m/K
253.45 K, 121 kPa, Gas
  thermal conductivity: 0.01008 ± 0.00035 W/m/K
253.53 K, 100 kPa, Gas
  thermal conductivity: 0.0101 ± 0.00035 W/m/K
261.38 K, 995 kPa, Liquid
  thermal conductivity: 0.07662 ± 0.00085 W/m/K
261.4 K, 996 kPa, Liquid
  thermal conductivity: 0.07661 ± 0.00085 W/m/K
